SMILES strings stand for the structures.

Results on 2 compounds are retold here after US10226453B2, “3-(1H-indol-2-yl)-1H-pyrazolo[4,3-B]pyridines and therapeutic uses thereof” (Samumed, LLC, priority 2015, dated 2019).

What all share (type): cell-based
Assay [1] concerns Wnt activity (Sp5-Luc reporter, SW480 colon carcinoma cells). Put plainly: Wnt activity screening assay: Sp5-Luc reporter gene in SW480 colon carcinoma cells. Conditions: Homo sapiens, overnight incubation, 10-point curve from 10 μM. The gist of the method: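 Luminescence read-out (BrightGlo) from stable Sp5-Luc SW480 cells, normalized to DMSO-only wells. Cells were treated overnight at 37° C in 1% FBS medium across a 1:3, 10-point series starting at 10 μM. EC50 from variable-slope four-parameter regression; percent inhibition at 10 μM given where EC50 >10 μM.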
(In a reporter assay the amount or activity of a reporter protein is the signal.)

Assay [2] has as its system IL-6 (THP-1 cells). Briefly: IL-6 inhibition in LPS-stimulated THP-1 human monocyte cells (HTRF). Conditions: LPS 500 ng/mL, 22 hours, IL6 HTRF. An outline of the steps:
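THP-1 cells, serum-reduced (1% FBS) for 24 h, were preincubated with compound (10-point 1:3 series from 10 μM, 0.1% DMSO) for 2 h, then stimulated with 500 ng/mL LPS for 22 h at 37° C. IL-6 was read by HTRF (665/620 nm ratio) and normalized to DMSO. EC50 from four-parameter fit; % inhibition at 10 μM given if EC50 >10 μM.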

The test system of assay [3] is primary human mesenchymal stem cells (hMSCs). Briefly: Induction of chondrogenesis in primary human mesenchymal stem cells (hMSCs), nodule count. Conditions: 144 h, 6 days, relative to TGF-β3 (10 ng/mL) positive control, read-out: Max. Activity as % TGF-β3 activity. On the procedure: Representative compounds were screened using primary human mesenchymal stem cells (hMSCs) to determine their ability to induce chondrogenesis (process by which cartilage is developed).
Primary human mesenchymal stem cells (hMSCs) were purchased from Lonza (Walkersville, Md.) and expanded in Mesenchymal Stem Cell Growth Media (Lonza). Cells between passage 3 and 6 were used for the experiments.
Each compound was dissolved in DMSO as a 10 mM stock and used to prepare compound source plates. Serial dilution (1:3, 6-point dose-response curves from 2700 nM to 10 nM) and compound transfer was performed using the ECHO 550 (Labcyte, Sunnyvale, Calif.) into 96-well clear bottom assay plates (Greiner Bio-One) with appropriate DMSO backfill for a final DMSO concentration of 0.03%. hMSCs were plated at 20,000 cells/well in 250 μL/well Incomplete Chondrogenic Induction Medium (Lonza; DMEM, dexamethasone, ascorbate, insulin-transferrin-selenium [ITS supplement], gentamycin-amphotericin [GA-1000], sodium pyruvate, proline and L-glutamine). TGF-β3 (10 ng/mL) was used as a positive control for differentiation while negative control wells were treated with 75 nL DMSO for normalization and calculating EC50 values. Cells were incubated at 37° C. and 5% CO2 for 6 days. To image chondrogenic nodules, the cells were fixed using 4% formaldehyde (Electron Microscopy Sciences), and stained with 2 μg/mL Rhodamine B (Sigma-Aldrich) and 20 μM Nile Red (Sigma-Aldrich) [Johnson K., et. al, A Stem Cell-Based Approach to Cartilage Repair, Science, (2012). 336(6082), 717-721]. The nodules imaged (4 images per well at 4× magnification) by excitation at 531 nm and emission at 625 nm and quantified using the CellInsight CX5 (Thermo Scientific). Number of nodules in each well was normalized to the average of 3 DMSO treated wells on the same plate using Excel (Microsoft Inc.). The normalized averages (fold change over DMSO) of 3 replicate wells for each compound concentration were calculated. Due to solubility limitations of some of the compounds, curve fitting was incomplete leading to inaccurate EC50 determinations.
Using TGF-β3 as a positive control, the concentration of representative compounds required to induce 50% levels of chondrogenesis is reported. In addition, the maximum activity of each compound and the respective dose that each compound reached maximum chondrogenesis activity is reported.

As usually defined, the EC50 is the concentration giving half of the maximal effect. Consider `O=C(CC1CCNCC1)Nc1cncc(-c2ccc3[nH]nc(-c4cc5c(-c6ccccn6)cccc5[nH]4)c3n2)c1` [Compound 621, 2-(Piperidin-4-yl)-N-(5-(3-(4-(pyridin-2-yl)-1H-indol-2-yl)-1H-pyrazolo[4,3-b]pyridin-5-yl)pyridin-3-yl)acetamide], for which the EC50 is 1600 nM in assay [1] and 52 nM in assay [2]. In addition, the Emax in assay [3] is 8%.

In the case of `c1cc(N2CCCCC2)c2cc(-c3n[nH]c4ccc(-c5cncc(OC6CCNCC6)c5)nc34)[nH]c2c1` [Compound 636, 3-(4-(Piperidin-1-yl)-1H-indol-2-yl)-5-(5-(piperidin-4-yloxy)pyridin-3-yl)-1H-pyrazolo[4,3-b]pyridine], the EC50 in assay [1] came out at 2390 nM; in assay [2], 1980 nM. Besides, the Emax in assay [3] came out at 34%.
